Measured values from US20220280513A1, “ENHANCING THE ANTIVIRAL EFFICACY OF RNA VIRUS INHIBITION BY COMBINATION WITH MODULATORS OF PYRIMIDINE METABOLISM” (The Board of Trustees of the Leland Stanford Junior …, priority 2019, published 2022).
Where two headings read alike, the source gives them in different places. One block for each molecule: values may come before it.

Experiments:
recombinant human UCK2 = target: T1, recombinant human UCK2 (Homo sapiens, UniProt Q9BZX2); test: In vitro enzyme activity assay with recombinant human UCK2 (PK/LDH-coupled, UV 340 nm); type: biochemical; details: for UCK2 substrate or not (ATP consumption): 250 μM analog in the presence of 50 μM uridine
T1 construct: 6xHis (C); made in house; host or cells: E. coli BL21(DE3)
T1 sequence (Q9BZX2 1-261): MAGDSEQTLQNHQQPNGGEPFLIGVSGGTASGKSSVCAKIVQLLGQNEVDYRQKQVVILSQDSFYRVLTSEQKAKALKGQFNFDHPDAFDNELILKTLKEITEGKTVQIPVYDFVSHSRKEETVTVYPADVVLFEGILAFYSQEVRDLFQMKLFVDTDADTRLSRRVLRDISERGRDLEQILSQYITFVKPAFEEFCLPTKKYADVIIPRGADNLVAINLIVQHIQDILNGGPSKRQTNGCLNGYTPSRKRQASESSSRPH
Excerpt: (§1) In order to guide our SAR studies, we developed an enzymatic assay to evaluate the inhibitory effect of each CPU analog against recombinant human UCK2, which was expressed and purified in E. coli. A continuous assay system was optimized by coupling UCK2 activity to the pyruvate kinase (PK) reaction, which in turn was coupled to lactate dehydrogenase (LDH). Overall reaction progress was continuously monitored by detecting the UV absorption change at 340 nm, which was correlated with the ATP consumption by UCK2. The effect of 250 μM of each CPU analog on UCK2 activity was evaluated in the presence of 50 μM uridine. […] We then individually measured the steady state kinetic parameters of UCK2 using uridine, CPU and 5-F-CPU as substrates. Their KM values were 86, 25, and 41 μM, and their kcat/KM values were 2.6×10^5, 1.5×10^5, and 7.3×10^4 s^−1 M^−1 (FIG. 5B).
(§2) Cloning, expression and purification of recombinant human UCK2 and CMPK1: Uridine cytidine kinase 2 (UCK2) was cloned into the pET-21a(+) vector using Ndel and Notl as restriction sites. […] The resulting plasmid was transformed into E. coli BL21(DE3) cells by electroporation, recovered in SOC at 37° C. for 1 h and plated onto LB agar plates with kanamycin overnight at 37° C. A single, isolated colony was inoculated into 30 mL LB supplemented with 50 μg/mL kanamycin and grown at 37° C. with shaking for 15 h. The next day, these cells were used to inoculate 1 L autoclaved LB with 50 μg/mL kanamycin. The flask was shaken at 37° C. When an optical density (OD600) of 0.7 was reached, protein expression was induced with 0.5 mM isopropyl β-D-1-thiogalactopyranoside (IPTG). The temperature was changed to 18° C. and flasks were shaken for an additional 15 h. The cell pellets were collected by spinning the media at 5000 rpm for 10 min. The pellets obtained were frozen by liquid nitrogen and stored in −80° C. for protein purification. Cell pellets were thawed and resuspended in lysis buffer containing Tris (40 mM, pH 7.5), NaCl (10 mM), imidazole (10 mM), DTT (1 mM). Cells were lysed by sonication and centrifuged at 25,000 g for 1 h. The supernatant was incubated with a slurry of Ni-NTA resin for 1 h at 4° C. and loaded onto a column. The nickel column wash buffer was Tris (40 mM, pH 7.5), NaCl (10 mM), DTT (1 mM) and each wash step contained increasing concentrations of imidazole (10, 50, or 250 mM). After SDS-PAGE confirmation of the protein fractions, protein was further purified using fast protein liquid chromatography (FPLC) using buffer A (50 mM Tris-HCl pH 8, 1 mM dithiothreitol (DTT), 10% glycerol) and elution buffer B (50 mM Tris-HCl pH 8, 1mM dithiothreitol (DTT), 10% glycerol with 500 mM NaCl) with changing gradient over a 20 minute from 2% to 100% Buffer B. FPLC eluents containing the protein was concentrated using Am icon centrifugal filter with 3K cut-off and the enzyme was stored in storage buffer (50 mM Tris-HCl pH 7.5, 10% glycerol). Human cytidine monophosphate kinase 1 (CMPK1) was purified as previously described (Deans et al., 2016).
(§3) In vitro enzyme activity assays with recombinant human UCK2: To continuously monitor reaction progress spectrophotometrically, ATP hydrolysis was coupled to NADH oxidation via pyruvate kinase (PK) and lactate dehydrogenase (LDH). Reactions were conducted at room temperature in 100 μL in 96-well plates (Greiner Bio-One, UV-Star, Half Area). Mixtures contained 20 mM HEPES (pH 7.2), 100 mM KCl, 2 mM MgCl2, 300 μM ATP, 0-500 μM uridine, 0-500 μM CPU analogs, 10 nM UCK2, 1 mM phosphoenolpyruvate, 500 μM NADH and 20 units/mL of PK and LDH. Progress was monitored in the linear region using a Biotek Synergy HT and kinetic and inhibition constants were determined using GraphPad Prism 7 (GraphPad Software).

DENV-2 virus = test: DENV antiviral assay, DENV-Luc replication in A549 cells (FIGS. 8 and 9); type: cell-based, dengue serotype 2 (DENV-2) strain 16681
Description: DENV-Luc reporter virus generation: The design of the pDENV-Luc infectious clone derived from dengue serotype 2 (DENV-2) strain 16681 was described in detail by Marceau et al (Marceau et al., 2016). The plasmid was linearized with Xbal and in vitro transcribed into the genomic RNA of DENV-Luc virus using the T7 Megascript Kit (Ambion) in the presence of m7G(5′)ppp(5′)G RNA Cap Structure Analog (NEB). 5 μg DENV-Luc RNA was electroporated into 2×10^6 Vero cells. The transfected cells were resuspended with Dulbecco's modified Eagle's medium (DMEM; Invitrogen) with 10% FBS and 100 U/ml penicillin-streptomycin and transferred into a T-175 flask incubated at 37° C. with 5% CO2. Supernatants were collected and replenished with fresh medium every 24 h from day 17 to 24 post-transfection, pooled together, clarified by centrifugation and stored in aliquots at −80° C. The amount of infectious DENV-Luc virus in the stock was titrated using the TCID50 assay and calculated by the Spearman & Kärber algorithm as described previously (Hierholzer and Killington, 1996).
DENV antiviral assays (For FIGS. 8 and 9): A549 cells were plated overnight at 5,000 cells/well in 96-well plates in complete DMEM and incubated for 24 h at 37° C. Cells were then treated with pyrimidine de novo synthesis inhibitors, and/or salvage inhibitors, and/or R1479 in DMEM supplemented with 20 μM uridine. Four hours after drug addition, cells were infected with DENV-2 virus at a MOI=0.1. After 72 h, DENV-Luc replication was monitored by the production of Renilla luciferase, which was measured using the Renilla-Glo Luciferase Assay System (Promega) according to the specifications of the manufacturer. For the accompanying cell viability assay, A549 cells were seeded at 5,000 cells/well in 96-well plates in complete DMEM and incubated for 24 h at 37° C. Cell were then treated with pyrimidine de novo synthesis inhibitors, and/or salvage inhibitors, and/or R1479 in DMEM supplemented with 20 μM uridine. Following 48 h treatment, cell viability was monitored by ATP levels, which was measured using the CellTiter-Glo Luciferase Assay System (Promega) according to the specifications of the manufacturer.

[1] = substrate: O=c1[nH]c(=O)n([C@@H]2C=C(CO)[C@@H](O)[C@H]2O)cc1F; test: In vitro enzyme activity assay with recombinant human UCK2 (PK/LDH-coupled, UV 340 nm); type: biochemical; details: other: steady state kinetic parameters of UCK2 with the compound as substrate
Excerpt: as §1, §2, §3

[2] = substrate: O=c1ccn([C@@H]2C=C(CO)[C@@H](O)[C@H]2O)c(=O)[nH]1; test: as above; type: biochemical; details: other: steady state kinetic parameters of UCK2 with the compound as substrate
Excerpt: as §1, §2, §3

[3] = substrate: O=c1ccn([C@@H]2O[C@H](CO)[C@@H](O)[C@H]2O)c(=O)[nH]1; test: as above; type: biochemical; details: other: steady state kinetic parameters of UCK2 with the compound as substrate
Excerpt: as §1, §2, §3

UCK2 substrate or not (ATP consumption) (recombinant human UCK2): substrates of UCK2 | rate of UMP synthesis (recombinant human UCK2; added to assay mixture containing UCK2, uridine (50 μM) and ATP): dose-dependent decrease
Molecule: O=c1[nH]c(=O)n([C@@H]2C=C(CO)[C@@H](O)[C@H]2O)cc1F [5-F-CPU, 1-((1R,4R,5S)-4,5-dihydroxy-3-(hydroxymethyl)cyclopent-2-en-1-yl)-5-fluoropyrimidine-2,4(1H,3H)-dione]

Molecule: [N-]=[N+]=N[C@]1(CO)O[C@@H](n2ccc(N)nc2=O)[C@H](O)[C@@H]1O [R1479, 4′-azidocytidine]
influence of GSK983 alone on the antiviral activity of R1479 (DENV-2 virus; 1 μM GSK983 added, no CPU, 20 μM uridine): negligible influence | EC50 (DENV-2 virus; Dengue virus, DENV2, A549, 20 μM uridine, without GSK983 and CPU, read-out: EC50, inhibition of dengue virus replication, R1479 as single agent): ~35 µM | EC50 (DENV-2 virus; Dengue virus, DENV2, A549, in the presence of 250 μM CPU and 1 μM GSK983, 20 μM uridine, read-out: EC50 of R1479 in combination): ≤ 8 µM | EC50 (DENV-2 virus; in the presence of 250 μM CPU and 1 μM GSK983, 20 μM uridine, read-out: EC50 of R1479 in combination): ~8 µM

Molecule: CC1=C[C@@H](n2ccc(=O)[nH]c2=O)[C@H](O)[C@@H]1O [5′-deoxy-CPU, 1-((1R,4R,5S)-4,5-dihydroxy-3-methylcyclopent-2-en-1-yl)pyrimidine-2,4(1H,3H)-dione]
UCK2 substrate or not (ATP consumption) (recombinant human UCK2): inhibitors but not substrates | Ki (recombinant human UCK2; competitive inhibitors of UCK2, Lineweaver-Burk analysis): 230 µM

B1: recombinant human UCK2 (Homo sapiens) (protein)
chain: MAGDSEQTLQNHQQPNGGEPFLIGVSGGTASGKSSVCAKIVQLLGQNEVDYRQKQVVILSQDSFYRVLTSEQKAKALKGQFNFDHPDAFDNELILKTLKEITEGKTVQIPVYDFVSHSRKEETVTVYPADVVLFEGILAFYSQEVRDLFQMKLFVDTDADTRLSRRVLRDISERGRDLEQILSQYITFVKPAFEEFCLPTKKYADVIIPRGADNLVAINLIVQHIQDILNGGPSKRQTNGCLNGYTPSRKRQASESSSRPH
notes: 6xHis (C); made in house; host or cells: E. coli BL21(DE3)
Km [1]: 41 µM | kcat/Km [1]: 73000 M⁻¹ s⁻¹ | Km [2]: 25 µM | kcat/Km [2]: 150000 M⁻¹ s⁻¹ | Km [3]: 86 µM | kcat/Km [3]: 260000 M⁻¹ s⁻¹
